Data on seven molecules can be found in patent US9302999B2, “Substituted triazoles as herbicides” (E. I. DU PONT DE NEMOURS AND COMPANY, priority 2012, dated 2016).

Holding throughout (format): in vivo
Assay [1] deals with pigweed (Amaranthus retroflexus). As to the kind of experiment: Test D pre-/postemergence: pigweed. The source says:
(§1) Seeds of plant species selected from bluegrass (annual bluegrass, Poa annua), blackgrass (Alopecurus myosuroides), canarygrass (Phalaris minor), chickweed (common chickweed, Stellaria media), galium (catchweed bedstraw, Galium aparine), bromegrass, downy (downy bromegrass, Bromus tectorum), field poppy (Papaver rhoeas), field violet (Viola arvensis), foxtail, green (green foxtail, Setaria viridis), deadnettle (henbit deadnettle, Lamium amplexicaule), ryegrass, Italian (Italian ryegrass, Lolium multiflorum), kochia (Kochia scoparia), lambsquarters (Chenopodium album), oilseed rape (Brassica napus), pigweed (Amaranthus retroflexus), Russian thistle (Salsola iberica), chamomile (scentless chamomile, Matricaria inodora), speedwell (bird's-eye speedwell, Veronica persica), barley, spring (spring barley, Hordeum vulgare), wheat, spring (spring wheat, Triticum aestivum), buckwheat, wild (wild buckwheat, Polygonum convolvulus), mustard, wild (wild mustard, Sinapis arvensis), oat, wild (wild oat, Avena fatua), radish, wild (wild radish, Raphanus raphanistrum), windgrass (Apera spica-venti), barley, winter (winter barley, Hordeum vulgare), and wheat, winter (winter wheat, Triticum aestivum) were planted into a silt loam soil and treated preemergence with test chemicals formulated in a non-phytotoxic solvent mixture which included a surfactant. At the same time, these same crop and weed species were planted in pots containing the planting medium comprising spaghnum peat moss, vermiculite, wetting agent and starter nutrients and treated with postemergence applications of the test chemicals formulated in the same manner. Plants ranged in height from 2 to 18 cm (1- to 4-leaf stage).
(§2) Treated plants and controls were maintained in a controlled growth environment for 14 to 21 days after which time all species were compared to controls and visually evaluated. Plant response ratings, summarized in Table D, are based on a scale of 0 to 100 where 0 is no effect and 100 is complete control. A dash (-) response means no test result.

In assay [2] the test system is Russian thistle (Salsola iberica). The assay is described as follows: Test D pre-/postemergence: Russian thistle.
Description: as §1, §2

Assay [3] deals with corn (Zea mays). The assay is described as follows: Test F pre-/postemergence: corn. To be noted: Postemergence, scale 0 to 100. From the text:
(§3) Seeds of plant species selected from corn (Zea mays), soybean (Glycine max), velvetleaf (Abutilon theophrasti), lambsquarters (Chenopodium album), poinsettia, wild (wild poinsettia, Euphorbia heterophylla), pigweed, palmer (palmer pigweed, Amaranthus palmeri), waterhemp (common waterhemp, Amaranthus rudis), surinam grass (Brachiaria decumbens), crabgrass, Brazil (Brazilian crabgrass, Digitaria horizontalis), panicum, fall (fall panicum Panicum dichotomiflorum), crabgrass, large (large crabgrass, Digitaria sanguinalis), foxtail, giant (giant foxtail, Setaria faberii), foxtail, green (green foxtail Setaria viridis), goosegrass (Eleusine indica), ragweed (common ragweed, Ambrosia elatior), barnyardgrass (Echinochloa crus-galli), sandbur (southern sandbur, Cenchrus echinatus), arrowleaf sida (Sida rhombifolia), ryegrass, Italian (Italian ryegrass, Lolium multiflorum), dayflower, VA (Virginia (VA) dayflower, Commelina virginica), field bindweed (Convolvulus arvensis), cocklebur (common cocklebur, Xanthium strumarium), morningglory (Ipomoea coccinea), nightshade (eastern black nightshade, Solanum ptycanthum), kochia (Kochia scoparia), nutsedge, yellow (yellow nutsedge, Cyperus esculentus), johnsongrass (Sorghum halepense), smartweed (ladysthumb smartweed, Polygonum persicaria), and beggarticks (hairy beggarticks, Bidens pilosa), were planted into a silt loam soil and treated preemergence with test chemicals formulated in a non-phytotoxic solvent mixture which included a surfactant. At the same time, plants selected from these crop and weed species and also pigweed (Amaranthus retroflexus), waterhemp_RES1 (ALS/Triazine resistant common waterhemp, Amaranthus rudis) and waterhemp_RES2 (ALS/HPPD resistant common waterhemp, Amaranthus rudis) were planted in pots containing a planting medium comprising spaghnum peat moss, vermiculite, wetting agent and starter nutrients treated with postemergence applications of some of the test chemicals formulated in the same manner. Plants ranged in height from 2 to 18 cm for postemergence treatments (1- to 4-leaf stage).
(§4) Treated plants and controls were maintained in a greenhouse for 14 to 21 days, after which time all species were compared to controls and visually evaluated. Plant response ratings, summarized in Table E, are based on a scale of 0 to 100 where 0 is no effect and 100 is complete control. A dash (-) response means no test result.

Assay [4] concerns barnyardgrass (Echinochloa crus-galli). As to the kind of experiment: Test F pre-/postemergence: barnyardgrass. To be noted: Postemergence, scale 0 to 100.
Description: as §3, §4

The mark [5] stands for this setting: Postemergence, 31 g ai/ha, scale 0 to 100 (0 no effect, 100 complete control).
Setting [6] is: Postemergence, 62 g ai/ha, scale 0 to 100 (0 no effect, 100 complete control).
The mark [7] stands for this setting: Postemergence, 125 g ai/ha, scale 0 to 100, 0 no effect, 100 complete control.
Where [8] appears, read: Postemergence, 250 g ai/ha, scale 0 to 100 (0 no effect, 100 complete control).
[9] abbreviates: Postemergence, 16 g ai/ha, scale 0 to 100.
Where [10] appears, read: Preemergence, 31 g ai/ha, scale 0 to 100, 0 no effect, 100 complete control.
The mark [11] stands for this setting: Preemergence, 62 g ai/ha, scale 0 to 100.
Setting [12] is: Preemergence, 125 g ai/ha, scale 0 to 100.
Where [13] appears, read: Preemergence, 250 g ai/ha, scale 0 to 100.
The mark [14] stands for this setting: Preemergence, 16 g ai/ha, scale 0 to 100, 0 no effect, 100 complete control.

In the case of `Cc1nn(-c2ccc(C(F)(F)F)cn2)nc1Cc1cccc(C(F)(F)F)c1` [Compound 106], the “Plant response rating: Pigweed” value is recorded as 50 in assay [1] (setting [5]), 60 in assay [1] (setting [6]), 90 in assay [1] (setting [7]) and 90 in assay [1] (setting [8]). The “Plant response rating, Pigweed” value in assay [1] (setting [9]) is 10; in assay [1] (setting [10]), 0; in assay [1] (setting [11]) it was 0; in assay [1] (setting [12]), 20; in assay [1] (setting [13]), 40. The “Plant response rating: Russian Thistle” value in assay [2] (setting [5]) amounted to 25; in assay [2] (setting [6]) it was 30; in assay [2] (setting [7]), 60; in assay [2] (setting [8]), 100. Also, the “Plant response rating, Russian Thistle” value is 20 in assay [2] (setting [9]); 0 in assay [2] (setting [10]); 0 in assay [2] (setting [11]); 0 in assay [2] (setting [12]); 0 in assay [2] (setting [13]).
For the molecule `Cc1nn(-c2ccc(C(F)(F)F)cn2)nc1Oc1ccnc(C(F)(F)F)c1` [Compound 23], the “Plant response rating: Pigweed” value in assay [1] (setting [5]) is 50; in assay [1] (setting [6]), 80; in assay [1] (setting [7]), 95; in assay [1] (setting [8]) it was 100. In addition, the “Plant response rating, Pigweed” value in assay [1] (setting [9]) is 50. For the same molecule, the “Plant response rating: Russian Thistle” value is on record as 50 in assay [2] (setting [5]), 70 in assay [2] (setting [6]), 90 in assay [2] (setting [7]) and 100 in assay [2] (setting [8]). In assay [2] (setting [9]), the “Plant response rating, Russian Thistle” value was 50.
For `Cc1nn(-c2ccnc(Cl)c2)nc1Cc1ccnc(C(F)(F)F)c1` [Compound 141], the “Plant response rating, Corn” value in assay [3] (8 g ai/ha) is 15; in assay [3] (16 g ai/ha), 15; in assay [3] (31 g ai/ha), 20; in assay [3] (62 g ai/ha) it was 20; in assay [3] (125 g ai/ha), 30. Moreover, the “Plant response rating, Barnyardgrass” value is reported as 10 in assay [4] (8 g ai/ha); 20 in assay [4] (16 g ai/ha); 20 in assay [4] (31 g ai/ha); 30 in assay [4] (62 g ai/ha); 40 in assay [4] (125 g ai/ha).
Consider `FC(F)(F)COc1nn(-c2ccc(C(F)(F)F)cc2)nc1Cc1ccnc(C(F)(F)F)c1` [Compound 14, 4-[[5-(2,2,2-trifluoroethoxy)-2-[4-(trifluoromethyl)phenyl]-2H-1,2,3-triazol-4-yl]methyl]-2-(trifluoromethyl)pyridine], for which the “Plant response rating: Pigweed” value in assay [1] (setting [5]), in assay [1] (setting [6]), in assay [1] (setting [7]) and in assay [1] (setting [8]) was 100 throughout. Further, the “Plant response rating, Pigweed” value worked out at 20 in assay [1] (setting [10]), 70 in assay [1] (setting [11]), 90 in assay [1] (setting [12]) and 100 in assay [1] (setting [13]). Besides, the “Plant response rating: Russian Thistle” value in assay [2] (setting [5]) is listed as 0; in assay [2] (setting [6]) it was 75; in assay [2] (setting [7]), 100; in assay [2] (setting [8]), 100. The “Plant response rating, Russian Thistle” value in assay [2] (setting [10]) is listed as 0; in assay [2] (setting [11]), 0; in assay [2] (setting [12]), 10; in assay [2] (setting [13]), 40.
In the case of `COc1nn(-c2ccc(C(F)(F)F)cc2)nc1Cc1ccnc(C(F)F)c1` [Compound 138], the “Plant response rating: Pigweed” value is given as 95 in assay [1] (setting [5]), 95 in assay [1] (setting [6]), 100 in assay [1] (setting [7]) and 100 in assay [1] (setting [8]). Further, the “Plant response rating, Pigweed” value in assay [1] (setting [9]) is 90. Moreover, the “Plant response rating: Russian Thistle” value in assay [2] (setting [5]) is recorded as 75; in assay [2] (setting [6]), 90; in assay [2] (setting [7]), 95; in assay [2] (setting [8]), 100. Besides, the “Plant response rating, Russian Thistle” value in assay [2] (setting [9]) is 50.
Regarding `COc1nn(-c2ccc(C(F)(F)F)cc2)nc1Cc1ccnc(C(F)(F)F)c1` [Compound 15, 4-[[5-methoxy-2-[4-(trifluoromethyl)phenyl]-2H-1,2,3-triazol-4-yl]methyl]-2-(trifluoromethyl)pyridine], the “Plant response rating: Pigweed” value in assay [1] (setting [5]) was found to be 80; in assay [1] (setting [6]), 80; in assay [1] (setting [7]) it was 100; in assay [1] (setting [8]), 100. The “Plant response rating, Pigweed” value in assay [1] (setting [9]) amounted to 80; in assay [1] (setting [10]), 20; in assay [1] (setting [11]), 70; in assay [1] (setting [12]), 98; in assay [1] (setting [13]) it was 100. Further, the “Plant response rating: Russian Thistle” value in assay [2] (setting [5]), in assay [2] (setting [6]), in assay [2] (setting [7]) and in assay [2] (setting [8]) was 100 each time. The “Plant response rating, Russian Thistle” value worked out at 60 in assay [2] (setting [9]); 0 in assay [2] (setting [10]); 0 in assay [2] (setting [11]); 80 in assay [2] (setting [12]); 80 in assay [2] (setting [13]).
Regarding `Cc1nn(-c2ccc(C(F)(F)F)cc2)nc1Oc1ccnc(C(F)(F)F)c1` [Compound 120], the “Plant response rating: Pigweed” value in assay [1] (setting [5]) is recorded as 90; in assay [1] (setting [6]), 90; in assay [1] (setting [7]) it was 100; in assay [1] (setting [8]) it was 100. In addition, the “Plant response rating, Pigweed” value is 0 in assay [1] (setting [9]); 30 in assay [1] (setting [14]); 100 in assay [1] (setting [10]); 100 in assay [1] (setting [11]); 100 in assay [1] (setting [12]); 100 in assay [1] (setting [13]). For the same molecule, the “Plant response rating: Russian Thistle” value in assay [2] (setting [5]) is 95; in assay [2] (setting [6]), 98; in assay [2] (setting [7]), 100; in assay [2] (setting [8]), 100. The “Plant response rating, Russian Thistle” value in assay [2] (setting [9]) is 95; in assay [2] (setting [14]), 100; in assay [2] (setting [10]), 100; in assay [2] (setting [11]), 100; in assay [2] (setting [12]), 100; in assay [2] (setting [13]), 100.
